Measured values as given in US5254554A, “3-hydroxy-substituted-1-phenyl-1,4-dihydro-4-oxopyridazines and derivatives, and use” (Pierre Fabre Medicament, priority 1991, dated 1993).

Experiments:
[1] = Anxiolytic activity, Vogel test; type: in vivo; conditions: 30 mg/kg per os
Protocol: (§1) Results obtained on the products of the present invention are presented in the following and are expressed in percentage of increase by reference to an untreated control, with the product being administered per os at a dose of 30 mg/kg.

[2] = Anxiolytic activity, X-labyrinth test (elevated plus maze); type: in vivo; conditions: 30 mg/kg per os
Protocol: as §1

Lipoxygenase = target: T1, Lipoxygenase (Rattus norvegicus, UniProt P12527); assay: Inhibition of Lipoxygenase: inhibition of leukotriene B4 production by polymorphonuclear cells stimulated by Ionophore A 23 187; type: cell-based; conditions: polymorphonuclear peritoneal cell suspensions
T1 construct: suspensions of polymorphonuclear peritonea of rates stimulated by means of the Ionophore A 23 187; endogenous in cells; host or cells: rat peritoneal polymorphonuclear cells
T1 sequence (P12527 1-673): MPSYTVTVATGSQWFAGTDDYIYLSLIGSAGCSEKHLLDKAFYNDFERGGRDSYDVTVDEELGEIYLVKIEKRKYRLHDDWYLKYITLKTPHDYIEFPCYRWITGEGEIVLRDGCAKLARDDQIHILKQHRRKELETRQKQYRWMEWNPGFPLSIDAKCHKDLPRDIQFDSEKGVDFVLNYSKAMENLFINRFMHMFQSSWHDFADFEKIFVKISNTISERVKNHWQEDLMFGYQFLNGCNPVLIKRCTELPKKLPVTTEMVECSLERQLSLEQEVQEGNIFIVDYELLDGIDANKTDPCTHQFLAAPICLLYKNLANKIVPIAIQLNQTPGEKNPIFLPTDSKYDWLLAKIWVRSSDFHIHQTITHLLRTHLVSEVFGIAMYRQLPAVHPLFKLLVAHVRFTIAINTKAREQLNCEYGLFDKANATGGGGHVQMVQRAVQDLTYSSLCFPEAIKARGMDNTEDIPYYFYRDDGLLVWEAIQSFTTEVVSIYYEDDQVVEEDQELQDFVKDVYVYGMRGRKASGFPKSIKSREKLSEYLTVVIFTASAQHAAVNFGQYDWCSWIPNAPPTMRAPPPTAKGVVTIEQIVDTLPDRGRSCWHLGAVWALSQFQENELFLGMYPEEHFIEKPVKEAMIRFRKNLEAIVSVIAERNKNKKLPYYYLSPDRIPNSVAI

COc1nn(-c2cccc(C(F)(F)F)c2)c(C)cc1=O [Compound 2, 1-Metatrifluoromethylphenyl-1,4-dihydro-3-methoxy-4-oxo-6-methylpyridazine]
Vogel test: percentage of increase by reference to an untreated control [1]: 95%
X-labyrinth test: percentage of increase by reference to an untreated control [2]: 95%

C=CCOc1nn(-c2cccc(C(F)(F)F)c2)c(C)cc1=O [Compound 5, 1-Metatrifluoromethylphenyl-1,4-dihydro-3-allyloxy-4-oxo-6-methylpyridazine]
Vogel test: percentage of increase by reference to an untreated control [1]: 48%

Cc1cc(=O)c(OCc2ccccc2)nn1-c1cccc(C(F)(F)F)c1 [Compound 6, 1-Metatrifluoromethylphenyl-1,4-dihydro-3-benzyloxy-4-oxo-6-methylpyridazine]
IC50 (Lipoxygenase): 1250 nM
Vogel test: percentage of increase by reference to an untreated control [1]: 98%
X-labyrinth test: percentage of increase by reference to an untreated control [2]: 18%

COc1nn(-c2cccc(C(F)(F)F)c2)ccc1=O [Compound 9, 1-Metatrifluoromethylphenyl-1,4-dihydro-3-methoxy-4-oxopyridazine]
Vogel test: percentage of increase by reference to an untreated control [1]: 52%
X-labyrinth test: percentage of increase by reference to an untreated control [2]: 165%

O=c1ccn(-c2cccc(C(F)(F)F)c2)nc1OCc1ccccc1 [Compound 10, 1-Metatrifluoromethylphenyl-1,4-dihydro-3-benzyloxy-4-oxopyridazine]
IC50 (Lipoxygenase): 25000 nM
Vogel test: percentage of increase by reference to an untreated control [1]: 38%

Cc1cc(=O)c(OCc2ccc3ccccc3n2)nn1-c1cccc(C(F)(F)F)c1 [Compound 11, 1-Metatrifluoromethylphenyl-1,4-dihydro-3-(2-quinolylmethoxy)-4-oxo-6-methylpyridazine]
IC50 (Lipoxygenase): 1100 nM
